Values quoted from earlier work as cited in patent publication US12582603B2 (NTC S.r.l., priority 2017, dated 2026).

Settings: at a pH of 6.4

Brc1c(N=C2NCCN2)ccc2nccnc12.O=C(O)C(O)C(O)C(=O)O [Brimonidine, 5-Bromo-6-(2-imidazolidinylideneamino)quinoxaline L-tartrate]
Fraction ionized: about 90%
